The source of these data is paper PMC12730060, “Design, Synthesis, and Antimalarial Evaluation of New Spiroacridine Derivatives” (Antibiotics, 2025).

Data set [1] relates to P. falciparum 3D7-GFP. Nature of the data set: Screening at fixed concentration against unsynchronized asexual blood stages, flow cytometry (GFP). Particulars: Plasmodium falciparum, read-out: Inhibition (%) 10 μΜ. It is filed as cell-based. How it is done:
In order to assess the antiplasmodial activity of the compounds, a screening with fixed concentrations at 10 μM was performed against unsynchronized cultures of the asexual blood stages of P. falciparum 3D7HT-GFP (hereafter referred to as 3D7-GFP). […] The JR intermediates were also evaluated in this assay in order to assess the relevance of the spiroacridine scaffold.
(§1) Firstly, to prepare the samples for in vitro assays, each compound was dissolved in DMSO (Sigma-Aldrich®, Merck, Darmstadt, Germany), obtaining a solution of 5 mM, from which two other solutions, at 100 μM and 10 μΜ were prepared through dilution with RPMI-1640 medium (Invitrogen™, Carlsbad, CA, USA), supplemented with AlbuMAXII (Invitrogen™, Carlsbad, CA, USA). In parallel, the parasite cultures used in the in vitro assays include the following P. falciparum strains: 3D7-GFP (MRA-1029, MR4, ATCC®, Manassas, VA, USA, chloroquine-sensitive, expressing Green Fluorescent Protein), Dd2 (MRA-150, ATCC®, Manassas, Virgínia, chloroquine-resistant), and IPC5202 (MRA-1240, ATCC®, Manassas, VA, USA, artemisinin-resistant). These cultures were obtained through BEI Resources, NIAID, NIH (MR4, ATCC®, Manassas, VA, USA), contributed by Andrew M. Talman, Robert E. Sinden, David Walliker, and Didier Ménard. The parasites were cultivated with 5% hematocrit at 37 °C and an atmosphere enriched with 5% of CO2 [54].
Then, to assess the antiplasmodial activity of the compounds, a screening assay was initially performed against the P. falciparum 3D7-GFP strain. For this, unsynchronized cultures were incubated in a 96-well flat-bottom plate at 1.2% hematocrit and 1.0% parasitemia, in the presence and absence of 1 μM and 10 μM of each compound, for 72 h at 37 °C and 5% CO2. […] Parasite growth was determined by flow cytometry (CytoFLEX, Beckman Coulter Life Sciences, Indianapolis, IN, USA) with a 96-well plate reader, using Fl-1 with an excitation wavelength of 488 nm for GFP detection. The flow cytometry data were analyzed with FlowJo v10 software (FlowJo LLC, Ashland, OR, USA) to calculate the percentage inhibition of compounds.

Data set [2] relates to P. falciparum 3D7-GFP (chloroquine-sensitive). Nature of the data set: IC50 determination against asexual blood stages, flow cytometry (GFP). It is filed as cell-based. The conditions noted are these: Plasmodium falciparum, 3D7, 72 h, read-out: IC50 (μM) 3D7-GFP. How it is done:
as §1, with “In parallel, the parasite cultures used in the in vitro assays include the following P. falciparum strains: 3D7-GFP (MRA-1029, MR4, ATCC®, Manassas, VA, USA, chloroquine-sensitive, expressing Green Fluorescent Protein), Dd2 (MRA-150, ATCC®, Manassas, Virgínia, chloroquine-resistant), and IPC5202 (MRA-1240, ATCC®, Manassas, VA, USA, artemisinin-resistant).” left out
(§2) In order to accomplish this, unsynchronized cultures of 3D7-GFP, Dd2, and MRA-1240 were incubated at 1.2% hematocrit and 1.0% parasitemia with serial three-fold dilutions of the compounds, ranging from 10,000 nM to 0.17 nM, in 96-well flat-bottom plates for 72 h at 37 °C and 5% CO2. Parasite growth was quantified by flow cytometry (CytoFLEX, Beckman Coulter Life Sciences, Indianapolis, IN, USA) using GFP detection in a 96-well plate reader (Fl-1 channel) for the 3D7-GFP strain. The others (Dd2 and MRA-1240) were stained with SYBR Green I (20×), which is also detected at 488 nm. Data analysis was performed with FlowJo v10 software (FlowJo LLC, Ashland, OR, USA), and the half-maximal inhibitory concentrations (IC50) were calculated using GraphPad Prism 5 (trial version), with mean IC50 values obtained from at least two independent experiments, each conducted in triplicate.
(§3) All statistical analyses and graphical representations were performed using the GraphPad Prism 8.0 software package. Dose–response curves were generated by fitting the data to a nonlinear regression model [log(inhibitor) vs. response—variable slope]. […] The IC50 values were obtained from the fitted curves. Each experiment was carried out in triplicate and repeated independently, and results were expressed as mean ± standard deviation.
(In general: In flow cytometry, cells or beads pass a laser one at a time.)

Data set [3] has as its system P. falciparum Dd2 (chloroquine-resistant). Nature of the data set: microbe, parasite or virus in culture. It is filed as cell-based. The conditions noted are these: Plasmodium falciparum, DD2, 72 h, read-out: IC50 (μM) Dd2. How it is done: as §1, with “In parallel, the parasite cultures used in the in vitro assays include the following P. falciparum strains: 3D7-GFP (MRA-1029, MR4, ATCC®, Manassas, VA, USA, chloroquine-sensitive, expressing Green Fluorescent Protein), Dd2 (MRA-150, ATCC®, Manassas, Virgínia, chloroquine-resistant), and IPC5202 (MRA-1240, ATCC®, Manassas, VA, USA, artemisinin-resistant).” left out
as §2, §3

For data set [4], the system named is P. falciparum MRA-1240 (artemisinin-resistant). Nature of the data set: microbe, parasite or virus in culture. It is filed as cell-based. Particulars: Plasmodium falciparum, 72 h, read-out: IC50 (μM) MRA-1240. How it is done:
as §1, with “In parallel, the parasite cultures used in the in vitro assays include the following P. falciparum strains: 3D7-GFP (MRA-1029, MR4, ATCC®, Manassas, VA, USA, chloroquine-sensitive, expressing Green Fluorescent Protein), Dd2 (MRA-150, ATCC®, Manassas, Virgínia, chloroquine-resistant), and IPC5202 (MRA-1240, ATCC®, Manassas, VA, USA, artemisinin-resistant).” left out
as §2, §3

The test system of data set [5] is monkey kidney cells (Vero E6). Nature of the data set: Cytotoxicity, MTT assay. It is filed as cell-based. The conditions noted are these: for IC50: Primates, read-out: IC50 (μM) Vero E6. How it is done: In the following stages, to assess the selectivity of compounds against P. falciparum over mammalian cells, the cytotoxicity against monkey kidney cells (Vero E6) was determined through MTT assay after 72h of treatment. Also, the selectivity index (SI) of compounds was calculated by the ratio between a compound’s cytotoxicity against Vero E6 cells and its antiplasmodial activity (SI = Vero E6 IC50/P. falciparum IC50).
For this, monkey kidney cells (Vero E6) were seeded at a density of 5 × 10^3 cells/mL in 96-well plates and allowed to adhere for 6 h. Vero E6 cell line was obtained from the Cell Bank of Rio de Janeiro and cultured in DMEM media (Dulbecco’s Modified Eagle Medium) plus 10% inactivated fetal bovine serum (FBS) and 1% penicillin–streptomycin. Treatments were performed by adding 100 μL of medium solutions with test drugs, resulting in concentrations ranging from 12.5 to 100 µM (DMSO 1%, v/v). After 72 h of incubation at 37 °C and under 5% of CO2, the cultures were incubated with MTT at 0.5 mg/mL for 2 h. After this, the formazan crystals were dried in room temperature and dissolved in DMSO. Cell viability was determined by measuring the absorbance at 570 nm (Absorbance microplate reader EL800, BioTek, Winooski, VT, USA), and control wells containing DMSO at 1% were considered as 100% cell viability.

For data set [6], the system named is mice. Details: method as in PMID 31861795. The conditions noted are these: acute toxicity, OECD guidelines; cited from earlier work.
For data set [7], the system named is P. falciparum 3D7. Particulars: read-out: potency against P. falciparum 3D7; cited from earlier work.
Data set [8] has as its system erythrocytes. Details: method as in PMID 40572185. The conditions noted are these: no cytotoxicity against erythrocytes up to this concentration; cited from earlier work.
Data set [9] deals with P. falciparum W2. Details: method as in PMID 30366283. The conditions noted are these: read-out: IC50 against P. falciparum W2; cited from earlier work.
[10] abbreviates: Vero C1008, 72 h, MTT, 12.5 to 100 µM.

SMILES strings stand for the structures. Like-named read-outs stand apart in the source and are kept apart here.

In general, inhibition refers to the drop in the measured response relative to a control, in per cent. With `N#CCC(=O)N/N=C/c1c[nH]c2ccccc12` [JR-19], the inhibition at 10 µM in data set [1] (3D7, 72 h) came out at 16.8 ± 5%.
Regarding `COc1cc(/C=N/N2C(=O)C(C#N)=CC23c2ccccc2Nc2ccccc23)cc(OC)c1OC` [AMTAC-17], the IC50 was 3.28 ± 0.49 µM in [2], 3.29 ± 0.38 µM in data set [3], 4.09 ± 0.05 µM in [4] and > 100 µM in data set [5] (setting [10]). For the same compound, the “estimated Median Lethal Dose (LD50)” value in data set [6] was “greater than 5000 mg/kg”.
With `COc1cc(C)c2c(Oc3cccc(C(F)(F)F)c3)c(OC)cc(NC(C)CCCN)c2n1` (stereo not drawn) [tafenoquine], the IC50 in data set [7] is 1.7 µM.
With `CC(=O)N(O)CCCCCNC(=O)CCC(=O)N(O)CCCCCNC(=O)CCC(=O)N(O)CCCCCN` [deferoxamine], the IC50 in [7] is 27.6 µM.
With `N#CC1=CC2(c3ccccc3Nc3ccccc32)N(/N=C/c2c[nH]c3ccccc23)C1=O` [AMTAC-22, (E)-1′-(((1H-indol-3-yl)methylene)amino)-5′-oxo-1′,5′-dihydro-10H-spiro[acridine-9,2′-pyrrole]-4′-carbonitrile], the IC50 in data set [2] was 3.01 ± 0.52 µM; in data set [3], 2.34 ± 0.11 µM; in data set [4], 2.88 ± 0.3 µM; in data set [5] (setting [10]), > 100 µM. Besides, the “reduction in cell viability” value in [5] (at all concentrations evaluated (12.5–100 μM), 72 h) is recorded as 15–20%.
Regarding `COc1ccc(/C=N/NC(=O)CC#N)cc1` [JR-11, (E)-2-cyano-N’-(4-methoxybenzylidene)acetohydrazide], the inhibition at 10 µM in [1] (3D7, 72 h) amounted to 13.4 ± 1.4%.
Same read-out and setting: under `COc1cc(/C=N/NC(=O)CC#N)cc(OC)c1O` [JR-28, (E)-2-cyano-N’-(4-hydroxy-3,5-dimethoxybenzylidene)acetohydrazide] stands 5.5 ± 11.5%; under `N#CCC(=O)N/N=C/c1ccccc1` [JR-09], 14.8 ± 0.4%.
On to `N#CC1=CC2(c3ccccc3Nc3ccccc32)N(/N=C/c2ccccc2)C1=O` [AMTAC-01], for which the IC50 was 2.11 ± 0.6 µM in data set [2], 1.37 ± 0.46 µM in data set [3], 1.66 ± 0.08 µM in data set [4] and > 100 µM in [5] (setting [10]). For the same compound, the “half-maximal hemolytic concentration (HC50)” value in [8] was > 400 µM.
For the compound `N#CC1=CC2(c3ccccc3Nc3ccccc32)N(/N=C/c2ccnc3ccccc23)C1=O` [AMTAC-21, (E)-5′-oxo-1′-((quinolin-4-ylmethylene)amino)-1′,5′-dihydro-10H-spiro[acridine-9,2′-pyrrole]-4′-carbonitrile], the IC50 in [2] is 3.78 ± 0.18 µM; in data set [3], 3.99 ± 0.23 µM; in data set [4], 4.07 ± 0.27 µM; in data set [5] (setting [10]), > 100 µM.
With `CCN(CC)CCCC(C)Nc1ccnc2cc(Cl)ccc12` (stereo not drawn) [CQ, chloroquine, reference compound], the inhibition at 10 µM in data set [1] (72 h) was 94.34 ± 0.54%. Further, the IC50 is 0.02 ± 0.01 µM in [2]; 0.26 ± 0.09 µM in data set [3]; 0.19 ± 0.07 µM in [4]; > 100 µM in data set [5] (Vero C1008, 72 h).
Consider `N#CCC(=O)N/N=C/c1ccc(Cl)cc1` [JR-06, (E)-N’-(4-chlorobenzylidene)-2-cyanoacetohydrazide], for which the inhibition at 10 µM in data set [1] (3D7, 72 h) was determined as 12.4 ± 1%.
As for `COc1cc(NC(C)CCCN)c2ncccc2c1` (stereo not drawn) [primaquine], the IC50 is 1.7 µM in [9] and 9.4 µM in data set [7].
For `COc1ccc(/C=N/N2C(=O)C(C#N)=CC23c2ccccc2Nc2ccccc23)cc1` [AMTAC-02], the IC50 in [2] is 3.19 ± 0.49 µM; in data set [3], 3.12 ± 0.34 µM; in data set [4] it was 4.01 ± 0.17 µM; in [5] (setting [10]) it was > 100 µM. The “half-maximal hemolytic concentration (HC50)” value in [8] is > 400 µM.
`N#CCC(=O)N/N=C/c1ccnc2ccccc12` [JR-18]: in data set [1] (3D7, 72 h), the inhibition at 10 µM was 14.7 ± 7.2%.
With `COc1cc(/C=N/NC(=O)CC#N)cc(OC)c1OC` [JR-10, (E)-2-cyano-N’-(3,4,5-trimethoxybenzylidene)acetohydrazide], the inhibition at 10 µM in data set [1] (3D7, 72 h) came to 12.6 ± 1.4%.
For `N#CC1=CC2(c3ccccc3Nc3ccccc32)N(/N=C/c2ccc(Cl)cc2)C1=O` [AMTAC-06], the inhibition at 10 µM in data set [1] (3D7, 72 h) came out at 62.4 ± 8.9%.
On the same count and under the same terms, under `COc1cc(/C=N/N2C(=O)C(C#N)=CC23c2ccccc2Nc2ccccc23)cc(OC)c1O` [AMTAC-24, (E)-1′-((4-hydroxy-3,5-dimethoxybenzylidene)amino)-5′-oxo-1′,5′-dihydro-10H-spiro[acridine-9,2′-pyrrole]-4′-carbonitrile] stands 66.8 ± 10.8%.
